Assay results from patent US7855166B2, “Sulfonylamino(thio)carbonyl compounds” (Bayer Cropscience GmbH, priority 2005, dated 2010).

How the values were obtained:
[1] = test system: weed plants such as Sinapis alba, Echinochloa crus-galli, Lolium multiflorum, Chrysanthemum segetum, Setaria viridis, Abutilon theophrasti, Amaranthus …; test: Post-emergence effect on weeds (greenhouse pot test, visual scoring); type: in vivo; conditions: applied post-emergence (three-leaf stage) at a rate of 0.3 kg or less of active substance per hectare; scored after about 3 to 4 weeks in comparison to untreated controls
[2] = test system: weed plants such as Sinapis alba, Chrysanthemum segetum, Avena sativa, Stellaria media, Echinochloa crus-galli, Lolium multiflorum, Setaria viridis, Abutilon …; test: Pre-emergence effect on weeds (greenhouse pot test, visual scoring); type: in vivo; conditions: applied pre-emergence at a rate of 0.3 kg or less of active substance per hectare; scored after 3 to 4 weeks in comparison to untreated controls

SMILES | herbicidal action against weed plants (effect scored visually) [1] | herbicidal action against weed plants (visual scoring of plant damage or emergence damage) [2]
CCCOc1nn(C(=O)NS(=O)(=O)c2c(I)cccc2OC(F)F)c(=O)n1C [Compound 1.464] | very good herbicidal action | very good herbidical action
CC(C)Oc1nn(C(=O)NS(=O)(=O)c2c(I)cccc2OC(F)F)c(=O)n1C [Compound 1.465] | very good herbicidal action | very good herbidical action
COc1nn(C(=O)NS(=O)(=O)c2c(I)cccc2OC(F)F)c(=O)n1C1CC1 [Compound 1.467] | very good herbicidal action | very good herbidical action
CCOc1nn(C(=O)NS(=O)(=O)c2c(I)cccc2OC(F)F)c(=O)n1C1CC1 [Compound 1.470] | very good herbicidal action | very good herbidical action
CCCOc1nn(C(=O)NS(=O)(=O)c2c(I)cccc2OC(F)F)c(=O)n1C1CC1 [Compound 1.473] | very good herbicidal action | very good herbidical action
COc1nn(C(=O)NS(=O)(=O)c2c(I)cccc2OCC(F)(F)F)c(=O)n1C [Compound 1.481] | very good herbicidal action | very good herbidical action
COc1nn(C(=O)NS(=O)(=O)c2c(I)cccc2OCC(F)(F)F)c(=O)n1C1CC1 [Compound 1.488] | very good herbicidal action | very good herbidical action
COc1nn(C(=O)NS(=O)(=O)c2c(I)cccc2OCC(F)F)c(=O)n1C [Compound 1.501] | very good herbicidal action | very good herbidical action
CCOc1nn(C(=O)NS(=O)(=O)c2c(I)cccc2OCC(F)F)c(=O)n1C [Compound 1.504] | very good herbicidal action | very good herbidical action
CCCOc1nn(C(=O)NS(=O)(=O)c2c(I)cccc2OCC(F)F)c(=O)n1C [Compound 1.505] | very good herbicidal action | very good herbidical action
CC(C)Oc1nn(C(=O)NS(=O)(=O)c2c(I)cccc2OCC(F)F)c(=O)n1C [Compound 1.506] | very good herbicidal action | very good herbidical action
COc1nn(C(=O)NS(=O)(=O)c2c(I)cccc2OCC(F)F)c(=O)n1C1CC1 [Compound 1.508] | very good herbicidal action | very good herbidical action
CCOc1nn(C(=O)NS(=O)(=O)c2c(I)cccc2OCC(F)F)c(=O)n1C1CC1 [Compound 1.511] | very good herbicidal action | very good herbidical action
CCCOc1nn(C(=O)NS(=O)(=O)c2c(I)cccc2OCC(F)F)c(=O)n1C1CC1 [Compound 1.514] | very good herbicidal action | very good herbidical action
COc1nn(C(=O)NS(=O)(=O)c2c(I)cccc2OC(C)C(F)(F)F)c(=O)n1C (stereo not shown) [Compound 1.522] | very good herbicidal action | very good herbidical action
CCOc1nn(C(=O)NS(=O)(=O)c2c(I)cccc2OC(C)C(F)(F)F)c(=O)n1C (stereo not shown) [Compound 1.525] | very good herbicidal action | very good herbidical action
CCCOc1nn(C(=O)NS(=O)(=O)c2c(I)cccc2OC(C)C(F)(F)F)c(=O)n1C (stereo not shown) [Compound 1.526] | very good herbicidal action | very good herbidical action
CC(C)Oc1nn(C(=O)NS(=O)(=O)c2c(I)cccc2OC(C)C(F)(F)F)c(=O)n1C (stereo not shown) [Compound 1.527] | very good herbicidal action | very good herbidical action
COc1nn(C(=O)NS(=O)(=O)c2c(I)cccc2OC(C)C(F)(F)F)c(=O)n1C1CC1 (stereo not shown) [Compound 1.529] | very good herbicidal action | very good herbidical action

SMILES | herbicidal action against weed plants (effect scored visually) [1] | herbicidal action against weed plants (visual scoring of plant damage or emergence damage) [2]
CCOc1nn(C(=O)NS(=O)(=O)c2c(I)cccc2OC(C)C(F)(F)F)c(=O)n1C1CC1 (stereo not shown) [Compound 1.532] | very good herbicidal action | very good herbidical action
CCCOc1nn(C(=O)NS(=O)(=O)c2c(I)cccc2OC(C)C(F)(F)F)c(=O)n1C1CC1 (stereo not shown) [Compound 1.535] | very good herbicidal action | very good herbidical action
COc1nn(C(=O)NS(=O)(=O)c2c(I)cccc2OCC(F)(F)C(F)(F)F)c(=O)n1C [Compound 1.544] | very good herbicidal action | very good herbidical action
CCCOc1nn(C(=O)NS(=O)(=O)c2c(I)cccc2OCC(F)(F)C(F)(F)F)c(=O)n1C [Compound 1.549] | very good herbicidal action | very good herbidical action
CC(C)Oc1nn(C(=O)NS(=O)(=O)c2c(I)cccc2OCC(F)(F)C(F)(F)F)c(=O)n1C [Compound 1.550] | very good herbicidal action | very good herbidical action
COc1nn(C(=O)NS(=O)(=O)c2c(I)cccc2OCC(F)(F)C(F)(F)F)c(=O)n1C1CC1 [Compound 1.552] | very good herbicidal action | very good herbidical action
CCOc1nn(C(=O)NS(=O)(=O)c2c(I)cccc2OCC(F)(F)C(F)(F)F)c(=O)n1C1CC1 [Compound 1.555] | very good herbicidal action | very good herbidical action
CCCOc1nn(C(=O)NS(=O)(=O)c2c(I)cccc2OCC(F)(F)C(F)(F)F)c(=O)n1C1CC1 [Compound 1.558] | very good herbicidal action | very good herbidical action
COc1nn(C(=O)NS(=O)(=O)c2c(I)cccc2SC)c(=O)n1C [Compound 1.579] | very good herbicidal action | very good herbidical action
CCCOc1nn(C(=O)NS(=O)(=O)c2c(I)cccc2SC)c(=O)n1C [Compound 1.581] | very good herbicidal action | very good herbidical action
CSc1cccc(I)c1S(=O)(=O)NC(=O)n1nc(OC(C)C)n(C)c1=O [Compound 1.582] | very good herbicidal action | very good herbidical action
COc1nn(C(=O)NS(=O)(=O)c2c(I)cccc2SC)c(=O)n1C1CC1 [Compound 1.584] | very good herbicidal action | very good herbidical action
CCOc1nn(C(=O)NS(=O)(=O)c2c(I)cccc2SC)c(=O)n1C1CC1 [Compound 1.585] | very good herbicidal action | very good herbidical action
CCCOc1nn(C(=O)NS(=O)(=O)c2c(I)cccc2SC)c(=O)n1C1CC1 [Compound 1.586] | very good herbicidal action | very good herbidical action
COc1nn(C(=O)NS(=O)(=O)c2c(I)cccc2OS(C)(=O)=O)c(=O)n1C [Compound 1.711] | very good herbicidal action | very good herbidical action
CCOc1nn(C(=O)NS(=O)(=O)c2c(I)cccc2OS(C)(=O)=O)c(=O)n1C [Compound 1.712] | very good herbicidal action | very good herbidical action
CCCOc1nn(C(=O)NS(=O)(=O)c2c(I)cccc2OS(C)(=O)=O)c(=O)n1C [Compound 1.713] | very good herbicidal action | very good herbidical action
COc1nn(C(=O)NS(=O)(=O)c2c(I)cccc2OS(C)(=O)=O)c(=O)n1C1CC1 [Compound 1.716] | very good herbicidal action | very good herbidical action
CCOc1nn(C(=O)NS(=O)(=O)c2c(I)cccc2OS(C)(=O)=O)c(=O)n1C1CC1 [Compound 1.717] | very good herbicidal action | very good herbidical action
